In EP0137692A2, “New antibiotic, neocopiamycin A and the production thereof” (Arai, Tadashi, Prof., priority 1983, dated 1985):

Columns and labels:
[1] = test system: ddY mice; assay: Acute toxicity; format: in vivo; details: for dose tolerated by all mice for 14 days without any toxic signs: mouse, in vivo
Method: Neocopiamycin A has the following physico-chemical properties. • (1) Color and Appearance: neutral, colorless, hygroscopic powder. • (2) Melting point: 134 - 136°C. […] Neocopiamycin A gives negative reactions to biuret, ninhydrin, Molisch, Fehling, ferric chloride, Liebermann-Burchard, 2,4-dinitrophenylhydrazine reagents, but possitive reactions to Dragendorff, platinic iodide and Sakaguchi reagents. It also gives pinkish coloration with conc. sulfuric acid, which subsequently turned brown with time. • (8) Ultra violet absorption spectrum: As shown in Fig. 1 of the accompanying drawings. λ^MeOHmax 205 nm (log ε 4.2) • (9) Infrared absorption spectrum: As-shown in Fig. 2 of the accompanying drawing. IR (KBr)(cm^-1) : 3380, 2975, 2925, 1715, 1655, 1595, 1455, 1375, 1240, 1140, 1070, 975, 845. • (10) NMR spectrum: As shown in Fig. 3 of the accompanying drawing. • (11) Rf values of TLC: • A purified sample of neocopiamycin A gives only one spot when chromatographed on thin layer chromatography TLC (Silica gel 60, plate F254) in different solvent systems and bioautographed against Candida albicans or absorption of ultraviolet. The Rf values and solvent systems employed are summarized in Table 1. [formula] • (12) Chemical structure: • According to spectral data and physicochemical characteristics, the sturcture of neocopiamycin A can be presumed to have the following formula:- [drawing 3] • Neocopiamycin A has the following biological properties. • (13) Antimicrobial Activity • The minimum inhibitory concentration (MIC) of neocopiamycin A against bacteria, yeast and fungi were determined by a serial two-fold agar dilution method. The medium used was Muller-Hilton agar for bacteria, and Sabouraud dextrose agar for yeasts and fungi. The antibiotic was dissolved in a small amount of ethanol and diluted with sterilized water to give final agar media containing less than one percent of the organic solvent, which was not a harmful concentration against the organisms tested. The MICs were determined after incubation for 24 hours or 4 days at 37^*C for bacteria, and after incubation 24 hours to 7 days at 37°C for yeasts and fungi, depending on the test strain. • Antimicrobial spectrum of neocopiamycin A is given in Tables 2, 3 and 4 below. […] Furthermore, it should be pointed out that neocopiamycin A inhibits the growth of both the filamentous and yeast- like fungi at the concentrations below 10 µg/ml. […] Antifungal spectra of copiamycin were similarly determined for the comparison purpose. [formula] [formula] • (14) Acute Toxicity • Acute toxicity of neocopiamycin A was determined with ddY mice weighing 20 to 21 g. Neocopiamycin A was finely pulverized and suspended in 15% aqueous ethanol solution for intraveneous, intraperitoneal and oral administrations. […]

[2] = test system: Trichomonas vaginalis; assay: Growth inhibition in thioglycolate medium; format: cell-based; design: unit not given here; details: thioglycolate medium with 0.5% dextrin and 15% bovine serum
[3] = Solubility; format: physicochemical
Method: (§1) Neocopiamycin A has the following physico-chemical properties. • (1) Color and Appearance: neutral, colorless, hygroscopic powder. • (2) Melting point: 134 - 136°C. […] Neocopiamycin A gives negative reactions to biuret, ninhydrin, Molisch, Fehling, ferric chloride, Liebermann-Burchard, 2,4-dinitrophenylhydrazine reagents, but possitive reactions to Dragendorff, platinic iodide and Sakaguchi reagents. […] [formula] • (12) Chemical structure: • According to spectral data and physicochemical characteristics, the sturcture of neocopiamycin A can be presumed to have the following formula:- [drawing 3] • Neocopiamycin A has the following biological properties. • (13) Antimicrobial Activity • The minimum inhibitory concentration (MIC) of neocopiamycin A against bacteria, yeast and fungi were determined by a serial two-fold agar dilution method. […] The MICs were determined after incubation for 24 hours or 4 days at 37^*C for bacteria, and after incubation 24 hours to 7 days at 37°C for yeasts and fungi, depending on the test strain. • Antimicrobial spectrum of neocopiamycin A is given in Tables 2, 3 and 4 below. […] Antifungal spectra of copiamycin were similarly determined for the comparison purpose. […] [formula] • (14) Acute Toxicity • Acute toxicity of neocopiamycin A was determined with ddY mice weighing 20 to 21 g. […]

[4] = test system: yeasts and fungi; assay: MIC by serial two-fold agar dilution method (Sabouraud dextrose agar); format: cell-based
Method: Neocopiamycin A has the following physico-chemical properties. • (1) Color and Appearance: neutral, colorless, hygroscopic powder. • (2) Melting point: 134 - 136°C. […] Neocopiamycin A gives negative reactions to biuret, ninhydrin, Molisch, Fehling, ferric chloride, Liebermann-Burchard, 2,4-dinitrophenylhydrazine reagents, but possitive reactions to Dragendorff, platinic iodide and Sakaguchi reagents. It also gives pinkish coloration with conc. sulfuric acid, which subsequently turned brown with time. • (8) Ultra violet absorption spectrum: As shown in Fig. 1 of the accompanying drawings. λ^MeOHmax 205 nm (log ε 4.2) • (9) Infrared absorption spectrum: As-shown in Fig. 2 of the accompanying drawing. IR (KBr)(cm^-1) : 3380, 2975, 2925, 1715, 1655, 1595, 1455, 1375, 1240, 1140, 1070, 975, 845. • (10) NMR spectrum: As shown in Fig. 3 of the accompanying drawing. • (11) Rf values of TLC: • A purified sample of neocopiamycin A gives only one spot when chromatographed on thin layer chromatography TLC (Silica gel 60, plate F254) in different solvent systems and bioautographed against Candida albicans or absorption of ultraviolet. […] [formula] • (12) Chemical structure: • According to spectral data and physicochemical characteristics, the sturcture of neocopiamycin A can be presumed to have the following formula:- [drawing 3] • Neocopiamycin A has the following biological properties. • (13) Antimicrobial Activity • The minimum inhibitory concentration (MIC) of neocopiamycin A against bacteria, yeast and fungi were determined by a serial two-fold agar dilution method. […] The MICs were determined after incubation for 24 hours or 4 days at 37^*C for bacteria, and after incubation 24 hours to 7 days at 37°C for yeasts and fungi, depending on the test strain. • Antimicrobial spectrum of neocopiamycin A is given in Tables 2, 3 and 4 below. […] Antifungal spectra of copiamycin were similarly determined for the comparison purpose. […] [formula] • (14) Acute Toxicity • Acute toxicity of neocopiamycin A was determined with ddY mice weighing 20 to 21 g. […]

[5] = test system: Gram-positive bacteria; assay: MIC by serial two-fold agar dilution method (Muller-Hilton agar); format: cell-based; details: 24 hours or 4 days at 37°C
Method: as §1

[6] = test system: Gram-negative bacteria; assay: as above; format: cell-based; details: 24 hours or 4 days at 37°C
Method: as §1

SMILES: CC(CCC/C=C/CCCN=C(N)N)CC(C)C1OC(=O)C=CC(C)C(O)CC(O)C(C)C(O)CCC(C)C(O)CC2(O)OC(CC(OC(=O)CC(=O)O)CC(O)CC(O)C(C)C(O)/C=C\C1C)CC(O)C2O (stereo not drawn) [neocopiamycin A]
- toxicity compared with copiamycin ([1]; comparison with copiamycin): less toxic than copiamycin
- dose tolerated by all mice for 14 days without any toxic signs ([1]; ip, 336 h): more than 1,000 mg/kg
- dose tolerated by all mice for 14 days without any toxic signs ([1]; iv): 30
- dose tolerated by all mice for 14 days without any toxic signs ([1]; po, 336 h): more than 1,000 mg/kg
- concentration inhibiting the growth of Trichomonas vaginalis [2]: 1.56
- Solubility ([3]; acetone, dioxane, chloroform, carbon tetrachloride, ethyl acetate, butyl acetate, petroleum ether, benzene, methyl isobutyl ketone and water): sparingly soluble or insoluble
- Solubility ([3]; methanol, ethanol, n-butanol, pyridine, dimethylformamide, glacial acetic acid): soluble
- concentrations inhibiting the growth of both the filamentous and yeast-like fungi ([4]; Sabouraud dextrose agar, incubation 24 hours to 7 days at 37°C): below 10 µg/ml
- antimicrobial activity compared with copiamycin ([4]; Tables 2, 3 and 4, comparison with copiamycin): much higher antimicrobial activity than copiamycin
- antimicrobial activity against fungi, yeasts ([4]; wide range of fungi, yeasts, agar dilution): active
- antimicrobial activity against Gram-positive bacteria [5]: active
- antimicrobial activity against Gram-negative bacteria [6]: inactive
